Test system: K562 human chronic myeloid leukaemia cells
Assay: In vitro cytotoxicity, MTT assay in K562 cells
Type: cell-based
Description: K562 human chronic myeloid leukaemia cells were maintained in RPM1 1640 medium supplemented with 10% fetal calf serum and 2 mM glutamine at 37° C. in a humidified atmosphere containing 5% CO2 and were incubated with a specified dose of drug for 1 hour or 96 hours at 37° C. in the dark. The incubation was terminated by centrifugation (5 min, 300 g) and the cells were washed once with drug-free medium. Following the appropriate drug treatment, the cells were transferred to 96-well microtiter plates (10^4 cells per well, 8 wells per sample). Plates were then kept in the dark at 37° C. in a humidified atmosphere containing 5% CO2. The assay is based on the ability of viable cells to reduce a yellow soluble tetrazolium salt, 3-(4,5-dimethylthiazol-2-yl)-2,5-diphenyl-2H-tetrazolium bromide (MTT, Aldrich-Sigma), to an insoluble purple formazan precipitate. Following incubation of the plates for 4 days (to allow control cells to increase in number by approximately 10 fold), 20 μL of MTT solution (5 mg/mL in phosphate-buffered saline) was added to each well and the plates further incubated for 5 h. The plates were then centrifuged for 5 min at 300 g and the bulk of the medium pipetted from the cell pellet leaving 10-20 μL per well. DMSO (200 μL) was added to each well and the samples agitated to ensure complete mixing. The optical density was then read at a wavelength of 550 nm on a Titertek Multiscan ELISA plate reader, and a dose-response curve was constructed. For each curve, an IC50 value was read as the dose required to reduce the final optical density to 50% of the control value.

SMILES	IC50 (K562, 1 h, 1 hour incubation) [nM]	further results
COc1ccc(C2=CN3C(=O)c4cc(OC)c(OCCCOc5cc6c(cc5OC)C(=O)N5C=C(c7ccc(OC)cc7)C[C@H]5C=N6)cc4N=C[C@@H]3C2)cc1 [ZC-207, 1,1′-[[(Propane-1,3-diyl)dioxy]bis[(11aS)-7-methoxy-2-(p-methoxybenzene)-1,11a-dihydro-5H-pyrrolo[2,1-c][1,4]benzodiazepine-5-one]]]	5.3 ± 4.9	
C/C=C/C1=CN2C(=O)c3cc(OC)c(OC)cc3N=C[C@@H]2C1 [Compound 30q, (11aS)-7,8-Dimethoxy-2-(1-propenyl)-1,11a-dihydro-5H-pyrrolo[2,1-c][1,4]benzodiazepin-5-one]		IC50 (K562, 96 h, 96 hour incubation period, threshold less than 10 nM): < 10 nM; IC50 (K562, 96 h, 96 hour incubation period, threshold less than 1 μM): < 1000 nM
COc1cc2c(cc1OCCCOc1cc3c(cc1OC)C(=O)N1C=C(C#Cc4ccccc4)C[C@H]1C=N3)N=C[C@@H]1CC(C#Cc3ccccc3)=CN1C2=O [ZC-209]	< 10	
C/C=C/C1=CN2C(=O)c3cc(OC)c(OCCCOc4cc5c(cc4OC)C(=O)N4C=C(/C=C/C)C[C@H]4C=N5)cc3N=C[C@@H]2C1 [ZC-211]		IC50 (1 hour incubation): < 10 nM
COc1cc2c(cc1OCCCOc1cc3c(cc1OC)C(=O)N1C=C(/C=C/C(=O)N(C)C)C[C@H]1C=N3)N=C[C@@H]1CC(/C=C/C(=O)N(C)C)=CN1C2=O	3800 ± 440	

From patent US7741319B2 (Spirogen Limited, priority 2004, dated 2010)
